Reference: patent publication US5066655A (priority 1989, dated 1991)
Values belong to the compound of their own block, whether it stands above or below them.

Experiments:
[1] = system: A2 adenosine receptor (guinea pig taenia caecum); assay: Antagonism of adenosine agonists in isolated guinea pig taenia caecum (contractile tone); details: for antagonism of adenosine agonists in taenia caecum: guinea pig taenia caecum relaxation; for sensitization of the tissue: guinea pig taenia caecum, high concentrations
Protocol: Taenia from the guinea pig caecum were cut into lengths of 1.5-2 cm. The tissues were suspended in a 20 ml organ bath containing de Jalon's solution that was gassed with 95% O2 + 5% CO2 and maintained at 31° C. The resting tension was 1.5 g. The contractile response was measured isotonically.
(§1) The ability of the compounds to antagonize the effects of agonists was analyzed using modified Schild plots.

[2] = target: T1, A1 adenosine receptor (guinea pig atrium) (Cavia porcellus, UniProt P47745); assay: Antagonism of adenosine agonists in isolated guinea pig left atrium (force of contraction); details: for antagonism of adenosine agonists in atria / basal force of contraction in the atria: guinea pig atria; for antagonism of adenosine agonists in atria: result in words
T1 construct: The left atria from male guinea pigs were isolated; from tissue; host or cells: left atria of male guinea pigs
T1 sequence (P47745 1-326): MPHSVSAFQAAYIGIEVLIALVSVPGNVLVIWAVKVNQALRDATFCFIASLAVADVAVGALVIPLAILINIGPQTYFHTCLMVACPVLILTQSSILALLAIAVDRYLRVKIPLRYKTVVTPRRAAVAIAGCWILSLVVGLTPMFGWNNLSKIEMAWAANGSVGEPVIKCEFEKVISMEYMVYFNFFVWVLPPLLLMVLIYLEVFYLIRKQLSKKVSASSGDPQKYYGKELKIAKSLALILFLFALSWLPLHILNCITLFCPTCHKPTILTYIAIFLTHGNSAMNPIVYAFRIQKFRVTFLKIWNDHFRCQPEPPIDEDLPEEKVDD
Protocol: The left atria from male guinea pigs were isolated, suspended between two punctate electrodes, and placed in a 20 ml organ bath that contained Krebs-Hensileit solution that was continuously gassed with 95% O2 + 5% CO2 and maintained at 31° C. The resting tension was one gram. Theatria were stimulated electrically at 1 hz, 1 ms duration pulses at supramaximal voltage. The force of contraction was recorded isometrically.
as §1

[3] = system: adenosine receptors (A1: heart rate; A2: blood pressure); assay: In vivo test on heart rate, blood pressure and ECG in anesthetized rats; set-up: species or system rat
Excerpt: Drug injections were made intravenously through a jugular cannula.

[4] = target: A2 receptors of human platelets (Homo sapiens, UniProt P29274); assay: Antagonism of NECA-induced stimulation of adenylate cyclase activity of human platelet membranes; type: biochemical; details: for antagonist potency at platelet A2 receptor: human platelet membranes, NECA-stimulated adenylate cyclase, result in words; for potency at platelet A2 receptor relative to PC12 A2 receptor: human platelets versus rat PC12 cells
Sequence of A2 receptors of human platelets (P29274 whole entry): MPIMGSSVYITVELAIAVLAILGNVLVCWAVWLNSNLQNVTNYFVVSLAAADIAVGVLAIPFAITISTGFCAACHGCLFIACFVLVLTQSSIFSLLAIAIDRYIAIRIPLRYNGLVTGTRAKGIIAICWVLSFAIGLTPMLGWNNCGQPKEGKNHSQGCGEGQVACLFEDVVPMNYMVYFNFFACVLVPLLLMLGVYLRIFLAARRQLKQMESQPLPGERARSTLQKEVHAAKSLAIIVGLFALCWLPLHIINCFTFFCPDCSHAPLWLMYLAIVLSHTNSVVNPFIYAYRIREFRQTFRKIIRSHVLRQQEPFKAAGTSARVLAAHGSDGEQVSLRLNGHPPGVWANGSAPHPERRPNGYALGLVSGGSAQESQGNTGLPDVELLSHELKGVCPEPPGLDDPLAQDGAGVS
Protocol: (§2) Human platelet, rat pheochromocytoma (PC12) cell, rat fat cell and rat cerebral cortex membranes were prepared as described (4,5,6). Adenylate cyclase activity and binding [^3 H]PIA to cerebral cortex membranes were determined essentially as described (4,5,6). KB values for the compounds were determined as described (4). […] EC50 and IC50 values for the agonists were obtained from the concentration-response curves by linear regression after logit-log transformation. KB values of the antagonists were calculated using the Schild equation KB =C/(CR-1), where C denotes the concentration of the competitor and CR the ratio of the EC50 and IC50 values in the presence and absence, respectively, of the competitor. IC50 of the compounds for inhibition of [^3 H]PIA binding to cerebral cortex membranes were transformed into Ki values as described (6).
In these cells, A2 receptor-mediated stimulation of adenylate cyclase results in an inhibition of aggregation (5,7).

A1 receptors = target: T2, A1 receptors (Rattus norvegicus, UniProt P25099); assay: Activity at A1 adenosine receptors (overall, fat cells and brain membranes); type: biochemical; details: discussion, fat cell and brain data
T2 sequence (P25099 1-326): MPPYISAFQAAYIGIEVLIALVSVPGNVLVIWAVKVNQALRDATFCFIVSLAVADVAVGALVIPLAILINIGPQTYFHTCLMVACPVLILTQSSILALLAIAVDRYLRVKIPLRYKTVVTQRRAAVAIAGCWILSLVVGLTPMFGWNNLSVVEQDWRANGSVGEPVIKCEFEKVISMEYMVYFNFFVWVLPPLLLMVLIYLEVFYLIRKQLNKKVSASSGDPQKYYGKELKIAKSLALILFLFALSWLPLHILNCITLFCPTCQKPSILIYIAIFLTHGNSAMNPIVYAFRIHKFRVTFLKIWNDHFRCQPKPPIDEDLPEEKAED
Protocol: as §2

[5] = target: T3, A1 receptors of rat fat cells (Rattus norvegicus, UniProt P25099); assay: Antagonism of R-PIA-induced inhibition of rat fat cell adenylate cyclase activity; type: biochemical; details: rat fat cell membranes, result in words
T3 sequence (P25099 1-326): T2 sequence (P25099 1-326)
Protocol: as §2

[6] = system: A1 and A2 adenosine receptors; assay: Activity at adenosine receptors, A1 versus A2 selectivity (overall); type: biochemical; details: for receptor selectivity A1 versus A2: in words; for stereoselectivity: A1 and A2 receptors
Protocol: as §2

[7] = system: A2 receptors of PC12 cells; details: cited from earlier work
A1 adenosine receptors = details: literature; cited from earlier work

Compound: Cn1cnc2c(NC3CCC3)ncnc21 [Example 3, N^6 -Cyclobutyl-9-MA]
- antagonist potency at platelet A2 receptor [4]: more potent than 9-methyladenine itself
- activity at A1 receptors, in words (A1 receptors): most potent of N^6 -substituted 9-methyladenines at A1 receptors
- antagonist potency at A1 receptors of fat cells [5]: more potent than the parent compound 9-methyladenine
- receptor selectivity A1 versus A2 [6]: selective for receptors

Compound: CNc1ncnc2c1ncn2C [Example 7, N^6 -Methyl-9-MA]
- antagonist potency at platelet A2 receptor [4]: much less potent than 9-methyladenine
- activity at A1 receptors, in words (A1 receptors): reduces activity
- antagonist potency at A1 receptors of fat cells [5]: less potent than 9-methyladenine

Compound: Cn1c(=O)c2[nH]c(-c3ccccc3)nc2n(C)c1=O [Example 8-PT, 8-phenyltheophylline, reference compound]
- antagonism of adenosine agonists in taenia caecum [1]: did antagonize the effects of agonists at low concentrations
- sensitization of the tissue [1]: sensitization effect is also observed
- receptor selectivity A1 versus A2 [6]: nonselective adenosine receptor antagonist

Compound: Cn1cnc2c(Nc3ccccc3F)ncnc21 [Example 10, N^6-2-Fluorophenyl-9-MA]
- antagonist potency at platelet A2 receptor [4]: increases potency
- antagonist potency at platelet A2 receptor ([4]; listed as 2-fluorophenyl-): enhance activity
- antagonist potency at A1 receptors of fat cells [5]: more potent than 9-methyladenine in the fat cell

Compound: COc1cc(CCNc2ncnc3c2ncn3C)cc(OC)c1OC [Example 13]
- antagonist potency at platelet A2 receptor [4]: as potent as 9-methyladenine
- receptor selectivity A1 versus A2 [6]: selectivity for A2 receptors

Compound: C[C@@H](Cc1ccccc1)Nc1ncnc2c1ncn2C [Example 17, N^6 - -- S-1-Phenyl-2-propyl-9-MA]
- antagonist potency at A1 receptors of fat cells [5]: more potent than the parent compound at A1 receptors of fat cells
- stereoselectivity [6]: exhibit stereoselectivity at both A1 and A2 receptors

Compound: OC[C@H]1O[C@@H](n2cnc3c(NC4CCCCC4)ncnc32)[C@H](O)[C@@H]1O [N^6 -cyclohexyl-]
- agonist potency at PC12 A2 receptors, in words [7]: more potent of the series

Compound: CNc1ncnc2c1ncn2[C@@H]1O[C@H](CO)[C@@H](O)[C@H]1O [N^6 -methyladenosine]
- affinity/activity at A1 receptors, in words (A1 adenosine receptors): low activity

Compound: COc1cc(CCNc2ncnc3c2ncn3[C@@H]2O[C@H](CO)[C@@H](O)[C@H]2O)cc(OC)c1OC [N^6-2-(3,4,5-trimethoxyphenylethyl)-]
- agonist potency at PC12 A2 receptors, in words [7]: more potent of the series

Compound: OC[C@H]1O[C@@H](n2cnc3c(NCCc4cccnc4)ncnc32)[C@H](O)[C@@H]1O [N^6-2-(3-pyridylethyl)-]
- agonist potency at PC12 A2 receptors, in words [7]: more potent of the series

Compound: OC[C@H]1O[C@@H](n2cnc3c(NCCc4ccccc4)ncnc32)[C@H](O)[C@@H]1O [N^6-2-phenethyl-]
- agonist potency at PC12 A2 receptors, in words [7]: more potent of the series

Compound: CC1(Nc2ncnc3c2ncn3[C@@H]2O[C@H](CO)[C@@H](O)[C@H]2O)CCCC1 [N^6-(1-methylcyclopentyl)adenosine]
- affinity/activity at A1 receptors, in words (A1 adenosine receptors): reduced compared to N^6 -cyclopentyladenosine

Further lines, with some results ahead:

- antagonism of adenosine agonists in atria [2]: competitive antagonists
- antagonism of adenosine agonists in atria ([2]; listed as Ex. 22): most potent antagonist
- Kb ([2]; read-out: Affinity constants (pKB) (converted)): 0.525 µM
Compound: Cn1cnc2c(N[C@H]3C[C@H]4CC[C@@H]3C4)ncnc21 (relative stereo) [Example 22, N^6-(endonorbornyl)-9-MA]
- antagonism of adenosine agonists in taenia caecum [1]: did not competitively antagonize the effects of adenosine agonists
- sensitization of the tissue [1]: some sensitization of the tissue
- cardioselectivity in vivo [3]: cardioselective adenosine receptor antagonist in vivo
- effect on adenosine-induced changes of blood pressure, heart rate and P-R interval ([3]; i.v.): attenuated the effects of subsequently administered adenosine on all parameters measured
- effect on adenosine-induced heart block ([3]; i.v., high doses of adenosine): substantially reduced
- effect on NECA action on the heart ([3]; i.v., prior administration): attenuated the effects of NECA on the heart
- effect on NECA-induced decrease in blood pressure ([3]; i.v., prior administration): minimally affecting the NECA-induced decrease in blood pressure

- antagonist potency at platelet A2 receptor [4]: more potent than 9-methyladenine itself
- receptor selectivity A1 versus A2 [6]: selective for receptors
Compound: Cn1cnc2c(NC3CCCCC3)ncnc21 [Example 6, N^6 -Cyclohexyl-9-MA]
- activity at A1 receptors, in words (A1 receptors): most potent of N^6 -substituted 9-methyladenines at A1 receptors
- antagonist potency at A1 receptors of fat cells [5]: more potent than the parent compound 9-methyladenine

- basal force of contraction in the atria [2]: increases in basal force of contraction
- antagonism of adenosine agonists in atria [2]: competitive antagonists
- antagonist potency at platelet A2 receptor [4]: more potent
- antagonist potency at platelet A2 receptor ([4]; listed as 3-pentyl-): enhance activity
- antagonist potency at A1 receptors of fat cells [5]: more potent than the aprent compound
Compound: CCC(CC)Nc1ncnc2c1ncn2C [Example 8, N^6-3-Pentyl-9-MA]
- antagonism of adenosine agonists in taenia caecum [1]: did not competitively antagonize the effects of adenosine agonists
- sensitization of the tissue [1]: some sensitization of the tissue
- potency at platelet A2 receptor relative to PC12 A2 receptor [4]: more potent at the platelet A2 receptor than at the PC12 A2 receptor

- antagonist potency at platelet A2 receptor [4]: equipotent to 9-methyladenine
Compound: Cn1cnc2c(Nc3ccccc3)ncnc21 [Example 9, N^6 -Phenyl-9-MA]
- potency at platelet A2 receptor relative to PC12 A2 receptor [4]: more potent at the platelet A2 receptor than at the PC12 A2 receptor
- antagonist potency at A1 receptors of fat cells [5]: more potent than 9-methyladenine in the fat cell

- antagonist potency at platelet A2 receptor [4]: less potent than 9-methyladenine
- activity at A1 receptors, in words (A1 receptors): modest activity
Compound: Cn1cnc2c(NCc3ccccc3)ncnc21 [Example 11, N^6 -Benzyl-9-MA]

- antagonist potency at platelet A2 receptor [4]: less potent than 9-methyladenine
- antagonist potency at A1 receptors of fat cells [5]: much less potent
Compound: Cn1cnc2c(NCCc3ccccc3)ncnc21 [Example 12, N^6-2-Phenethyl-9-MA]

- antagonist potency at platelet A2 receptor [4]: less potent than 9-methyladenine
Compound: Cn1cnc2c(NCCc3cccnc3)ncnc21 [Example 14, N^6-2-(3-Pyridylethyl)-9-MA]

- antagonist potency at platelet A2 receptor [4]: somewhat more potent
- antagonist potency at platelet A2 receptor ([4]; listed as 2-(3 -thienylethyl)-): enhance activity
Compound: Cn1cnc2c(NCCc3ccsc3)ncnc21 [Example 15, N^6-2-(3-Thienylethyl)-9-MA]
- antagonist potency at A1 receptors of fat cells [5]: more potent than 9-methyladenine itself in the fat cell

- antagonist potency at platelet A2 receptor [4]: more potent than the S-isomer
- antagonist potency at platelet A2 receptor ([4]; listed as R-1-phenyl-2-propyl-): enhance activity
Compound: C[C@H](Cc1ccccc1)Nc1ncnc2c1ncn2C [Example 16, N^6 - -- R-1-Phenyl-2-propyl-9-MA]
- antagonist potency at A1 receptors of fat cells [5]: more potent than the parent compound at A1 receptors of fat cells
- stereoselectivity [6]: exhibit stereoselectivity at both A1 and A2 receptors

- basal force of contraction in the atria [2]: increases in basal force of contraction
- antagonism of adenosine agonists in atria [2]: competitive antagonists
Compound: CCC(Cc1cccs1)Nc1ncnc2c1ncn2C (centres unmarked) [Example 23]
